Reference: patent publication US20210254056A1, “IDENTIFICATION AND TARGETED MODULATION OF GENE SIGNALING NETWORKS” (CAMP4 THERAPEUTICS CORPORATION, priority 2017, published 2021)

Tested on: hepatocytes
Assay: RNA-seq of hepatocytes treated with Phase III failure compounds
Settings: for significant modulation of expression of any of the genes analyzed: RNA-seq, p≤0.05, hepatocytes
Method: RNA-seq was performed to determine the effects of the compounds on hepatocytes.
Significance was determined by the criteria of FPKM≥0.5, a log 2(fold-change)≥1, and a […].

Q: How did the “significant modulation of expression of any of the genes analyzed” value turn out when CC1(C)CC[C@]2(C(=O)O)CC[C@]3(C)[C@H](C(=O)C=C4[C@@]5(C)C=C(C#N)C(=O)C(C)(C)[C@@H]5CC[C@]43C)[C@@H]2C1 [Bardoxolone] was run?
A: The value was “not observed to significantly modulate expression”.

Q: With CC(C)(CO)c1cc2cc(NC(=O)C3(c4ccc5c(c4)OC(F)(F)O5)CC3)c(F)cc2n1C[C@@H](O)CO [VX-661 (tezacaptor), tezacaptor] as the molecule, how does the “significant changes in gene expression” value (RNA-seq of Table 36, FPKM≥0.5, log 2(fold-change)≥1, q-value≤0.05) read?
A: Its value is “not observed to cause any significant changes in gene expression”.

Q: And the “significant modulation of expression of any of the genes analyzed” value?
A: Its value is “not observed to significantly modulate expression”.
